In US20250041216A1, “Methotrexate Composition” (Rosemont Pharmaceuticals Ltd., priority 2012, published 2025):

Assay: Stability studies of example 1 formulation at different pH and buffer strength, visual precipitate (Table 3)
Assay type: physicochemical
Conditions: pH values below 6.0, over time
Method: Batches were prepared at various pHs in the range 5.6-6.0 and were prepared at ½, 1/10th and 1/20th the original buffer strength of example 1 (i.e. the citric acid monohydrate and disodium hydrogen phosphate dihydrate buffer system). The original buffer strength was taken from a citrate-phosphate buffer table (http://microscopy.berkeley.edu/Resources/instruction/buffers.html).
The stability studies were undertaken using the example 1 formulation but using either a citrate-phosphate buffer system at half the strength (i.e. 43 mmol) or 1/10th of the strength (i.e. 8.7 mmol) compared to that of example 1. The formulations were adjusted to 5 different pH values; 5.6, 5.7, 5.8, 5.9 and 6.0. One set of formulations were stored at 5° C. and one set of formulations were stored at 25° C. for each buffer strength and each pH value for the duration of the study. The study took place over a 6-month time period.

## CN(Cc1cnc2nc(N)nc(N)c2n1)c1ccc(C(=O)N[C@@H](CCC(=O)O)C(=O)O)cc1 [Methotrexate]
  Precipitation out of solution: precipitate out of solution over time
